Patent US20240058308A1, “TREATMENT AND PREVENTION OF DRY MACULAR DEGENERATION” (The Regents of the University of Michigan, priority 2021, published 2024)
Where two headings read alike, the source gives them in different places. Values belong to the compound of their own block, whether it stands above or below them.

Assays:
[1] = test system: primary human fetal RPE (hfRPE) culture; experiment: Autophagy induction by LC3 lipidation (LC3-II/LC3-I ratio) on Western blot; format: cell-based; settings: 24 hours exposure, vs vehicle (DMSO)
Description: (§1) Cell cultures were exposed to each putative autophagy inducer at a concentration indicated in Table 1 for 24 hours, lysed with 36 μL of SDS sample buffer with β-mercaptoethanol, with 15 μg of lysate loaded on a 4-15% gradient gel followed by transfer to a PVDF membrane. Blots were incubated with 1:1000 of LC3A/B antibody (Cell Signaling Technology; #4108s, RRID:AB_2137703) overnight. Quantifying LC3-II/LC3-I ratio is a well-accepted method for det 306 ermining autophagy induction [Ref. 44; incorporated by reference in its entirety], and this ratio was quantified in a non-saturated, linear range using the Azure c500 Imaging System (Azure Biosystems, Dublin, CA, USA) and a combination of AzureSpot and ImageJ software. The data in FIG. 2A are not normalized, whereas the data in FIGS. 2b and 1c are normalized to the average combined value of the vehicle and drug groups within each experimental repeat. The extreme pigmentation of human fetal cultures, combined with the destruction of the LC3 epitope with melanin bleaching protocols, makes detection of LC3 by microscopy in hfRPE difficult. A range of LC3 staining and puncta quantification protocols specifically adapted to pigmented hfRPE culture were employed [Ref. 43; incorporated by reference in its entirety]. At least five fields of view were randomly chosen and analyzed per experimental replicate for LC3 immunocytochemistry.
To test for autophagy induction, lipidation of the core autophagy protein LC3 was measured by mobility shift on Western blots 24 hours after each compound was added to hfRPE cultures [Ref. 44; incorporated by reference in its entirety]. […] Of the more than 30 putative autophagy inducers tested, only five produced an increased ratio of LC3-II/LC3-I, consistent with increased autophagy (FIG. 2a).
Autophagy induction was measured by LC3-II/LC3-I Ratios on Western Blot (standard method for autophagy induction) (FIG. 18A-C). Drugs were applied to primary human RPE culture for 24 hours.

[2] = test system: primary human fetal RPE (hfRPE) culture; experiment: Autophagy induction by LC3 puncta formation (immunocytochemistry); format: cell-based; settings: 24 hours exposure
Description: as §1
Autophagy induction was confirmed by assaying the formation of LC3-positive puncta (autophagosomes) by immunocytochemistry [Ref. 44; incorporated by reference in its entirety]. Puncta formation was quantified in automated/unbiased fashion using a customized macro in the Fiji/ImageJ platform [Ref. 43; incorporated by reference in its entirety].
Autophagy induction was measured by LC3 puncta on immunocytochemistry (standard method for autophagy induction) (FIG. 19). Drugs applied to primary human RPE culture for 24 hours.

[3] = test system: primary human fetal RPE (hfRPE) culture; experiment: Autophagy flux assay with NH4Cl lysosomal alkalinization; format: cell-based; settings: inducer 22.5 hours, then 25 mM NH4Cl for final 1.5 hours
Description: Cultures were exposed to compounds or vehicle (DMSO) for 24 hours. […] (C) Autophagy flux assays. After application of inducers or vehicle (DMSO) for 22.5 hours, 25 mM of NH4Cl, a lysosomal alkalizing agent, or H2O were added for a final 1.5 hours to inhibit autophagy flux.
Increases in both LC3 lipidation and autophagosome formation could result from downstream blockade of autophagy at the lysosome.

primary hfRPE culture [4] = experiment: Trans-epithelial electrical resistance (TEER), tight-junction integrity; format: cell-based
Description: (§2) TEER and cell death were measured [Ref 51; incorporated by reference in its entirety]. For cell death assays, maximum possible LDH release per Transwell was measured immediately after 2 μL of the final experimental supernate was taken. The Transwell and supernate was then treated with 0.2% Triton X-100 for 15 minutes at 37° C. followed by collection of an additional 2 μL of supernate. Each experimental LDH release value was first normalized to total LDH release from the vehicle condition. Additionally, all TEER and LDH release measurements were normalized to the vehicle group at the zero-hour timepoint.
(§3) To evaluate the safety of D4476 and FLBZ, trans-epithelial electrical resistance (TEER) was measured, a measure of tight-junction integrity, in RPE cultures after prolonged exposure to each compound. As well-formed tight-junctions require myriad cell processes to be optimally coordinated, assessing TEER provides an easily measurable, ongoing, and noninvasive marker for general RPE cell health [Ref. 45; incorporated by reference in its entirety]. […] Lactate dehydrogenase (LDH) release, a combined marker of necrotic and late-stage apoptotic cell death [Refs. 47,48; incorporated by reference in their entireties], was reduced compared to vehicle for all four verified RPE autophagy inducers (FIG. 3b). Exposure of RPE cultures to the oxidant tert-butyl hydroperoxide confirmed the ability of the assay to detect cell death (FIG. 10).
Transepithelial Electrical Resistance (TEER) was tested (FIGS. 16 and 17). TEER is a sensitive measure of toxicity (lower the TEER, the more toxic the drug is). Drugs were added daily and measurements made daily for at least 4-8 days.

primary hfRPE culture [5] = experiment: Outer segment (OS) phagocytosis efficiency (rhodopsin disappearance); settings: bovine outer segments, pulse-only method
Description: (§4) Phagocytosis assays using bovine outer segments was performed using the “pulse-only” method [Ref 43; incorporated by reference in its entirety]. Values at the zero-hour timepoint were used for normalization.

primary hfRPE culture [6] = test system: primary hfRPE culture
Description: as §4

primary hfRPE culture [7] = experiment: Undigestible autofluorescent material (UAM) accumulation, elimination and granule size after oxOS feedings; format: cell-based, human; settings: fed daily with oxOS over a month; FLBZ 12 μM, Torin 1 μM; vs vehicle
RPE of mouse eye = experiment: Intravitreal injection in mouse eyes, autophagy by LC3II/LC3I ratio of lysates; format: in vivo; settings: four concentrations up to 500 uM, multiple timepoints, DMSO in other eye
Description: Experiments were conducted during development of embodiments herein to assay for autophagy in the mouse eye. Experiments were conducted to measure autophagy by giving an intraperitoneal injection of leupeptin, followed by assaying for LC3 puncta in an RPE flatmount of a GFP-LC3 mouse. Background from GFP-LC3 debris deposited on the RPE when the retina was peeled off for the flat mount prevented signal detection. A biochemical assay was then employed for autophagy induction, measuring an increase in the lipidation of the autophagy core protein LC3 (lipidated LC3=LC3-II, unlipidated LC3=LC3-I, so higher LC3-II/LC3-I ratio indicates autophagy induction). Sufficient signal as obtained. […] Harvesting techniques were also optimized for collecting RPE from mouse eyes.
Experiments were conducted during development of embodiments herein to establish a positive control for autophagy induction. […] Autophagy induction was measured at 4 different concentrations of Torin (500 nm, 5 um, 50 um, 500 um) and at 5 different timepoints after injection (1 day, 3 days, 7 days, 14 days, 28 days). […] Nevertheless, the ability of intravitreal injections of FLBZ to induce autophagy in the RPE was assessed. In preparation for injecting FLBZ intravitreally into mice, solubility assays were performed and the maximum amount of FLBZ that can be injected without it crashing out of solution in the vitreous was determined. […]

RPE from mouse eyecups = experiment: Ex vivo mouse eyecup autophagy induction (LC3II/LC3I ratio); settings: mouse RPE/choroid eyecup, 24 hours; Torin 1-5 uM, FLBZ 12-60 uM
Description: FIG. 14. Effect of autophagy positive control Torin on RPE from mouse eyecups (DMSO as control). […] Mouse eyes were enucleated, the anterior segment vitreous, and retina were removed, leaving an eyecup with RPE/choroid exposed. […] RPE/Choroid eyecup was treated with 1 uM Torin1 in our previously established RPE cell culture media for 24 hours. n=4.
FIG. 15. Effect of Flubendazole on RPE from Mouse Eyecups (DMSO as control). Conditions with and without ammonium chloride (NH4Cl) help establish high autophagy flux rates. If true autophagy flux is happening, the LC3II/LC3I ratio should increase further upon addition of NH4Cl, as is the case here. DMSO− and FLBZ−, n=6, FLBZ+ and DMSO+ n=5. Flubendazole tested at 60 uM, lysates collected after 24 hours. Induction did occur in eyecups.
Given the inconsistent results with detecting autophagy induction using intravitreal injection of the positive control, Torin, experiments were conducted to determine whether the lack of responsiveness to intravitreal injections was a drug access issue or whether it was a species or animal vs. culture difference. Additional experiments utilized freshly isolated mouse eyecups with the retina removed to determine whether Torin (and FLBZ) induce autophagy in this context. […] The use of ammonium chloride in these experiments blocks lysosomal degradation.

[8] = Solubility assays of DMSO stock mixed with PBS (simulating the vitreous); format: physicochemical; settings: Torin 1 mM stock mixed 1:1 with PBS; flubendazole 3 mM stock
Description: Experiments were conducted during development of embodiments herein to establish a positive control for autophagy induction. The direct mTOR inhibitor Torin1 was selected over rapamycin/sirolimus as the positive control, based on the capacity of Torin1 to induce autophagy in primary culture more strongly and more consistently than rapamycin. The experimental set-up involved injecting one eye with Torin and the other eye with the DMSO vehicle. Autophagy induction was measured at 4 different concentrations of Torin (500 nm, 5 um, 50 um, 500 um) and at 5 different timepoints after injection (1 day, 3 days, 7 days, 14 days, 28 days). […] Nevertheless, the ability of intravitreal injections of FLBZ to induce autophagy in the RPE was assessed. In preparation for injecting FLBZ intravitreally into mice, solubility assays were performed and the maximum amount of FLBZ that can be injected without it crashing out of solution in the vitreous was determined. […] This helped inform maximal concentrations of flubendazole that could be injected intravitreally. Four different concentrations were injected, up to the maximum solubility of FLBZ, and autophagy induction was assayed over a timeframe ranging from 1 week to 4 weeks after injection.

primary hfRPE culture [9] = experiment: Cytotoxicity by LDH release; format: cell-based, human; settings: 24 hours exposure
Description: as §2
as §3, with “Exposure of RPE cultures to the oxidant tert-butyl hydroperoxide confirmed the ability of the assay to detect cell death (FIG. 10).” left out

[10] = prolonged exposure, drug or vehicle (DMSO) replaced daily

SMILES: CCCCc1oc2ccccc2c1C(=O)c1cc(I)c(OCCN(CC)CC)c(I)c1 [Amiodarone]
LC3-II/LC3-I ratio (autophagy induction) [1]: Induction of autophagy

TEER (tight-junction integrity) (primary hfRPE culture [4]; [10]): more modest impact
OS phagocytosis efficiency / OS degradative capacity (primary hfRPE culture [5]): no effect on OS degradative capacity
SMILES: NC(=O)c1ccc(-c2nc(-c3ccc4c(c3)OCCO4)c(-c3ccccn3)[nH]2)cc1 [D4476]
LC3-II/LC3-I ratio (autophagy induction) [1]: Induction of autophagy
LC3 puncta formation (autophagy induction) [2]: induced autophagy
Autophagy flux: LC3-II/LC3-I ratio after NH4Cl [3]: induces autophagy flux

SMILES: O=C1NC(=O)/C(=C/c2ccc3nccc(-c4ccncc4)c3c2)S1 [GSK, GSK 1059615]
LC3-II/LC3-I ratio (autophagy induction) [1]: upregulate autophagy
LC3 puncta formation (autophagy induction) [2]: induced autophagy
Autophagy flux: LC3-II/LC3-I ratio after NH4Cl [3]: induces autophagy flux
TEER (tight-junction integrity) (primary hfRPE culture [4]; [10]): dramatically reduced TEER
OS phagocytosis efficiency / OS degradative capacity (primary hfRPE culture [6]): reduces phagocytosis efficiency

SMILES: CC(C)(Sc1ccc(CCN(CCCCC2CCCCC2)C(=O)NC2CCCCC2)cc1)C(=O)O [GW7647]
LC3-II/LC3-I ratio (autophagy induction) [1]: Induction of autophagy

SMILES: O=C(NCC1(N2CCN(c3ccccc3)CC2)CCOCC1)c1cccnc1Sc1ccccc1 [JNJ, JNJ-47965567]
LC3-II/LC3-I ratio (autophagy induction) [1]: Induction of autophagy

TEER (tight-junction integrity) (primary hfRPE culture [4]): dramatically reduced TEER
Precipitation of DMSO stock solution when mixed with PBS [8]: did not crash out
OS phagocytosis efficiency / OS degradative capacity (primary hfRPE culture [6]): reduces phagocytosis efficiency
SMILES: CCC(=O)N1CCN(c2ccc(-n3c(=O)ccc4cnc5ccc(-c6cnc7ccccc7c6)cc5c43)cc2C(F)(F)F)CC1 [Torin, Torin1]
LC3-II/LC3-I ratio (autophagy induction) [1]: upregulate autophagy
LC3 puncta formation (autophagy induction) [2]: induced autophagy
Autophagy flux: LC3-II/LC3-I ratio after NH4Cl [3]: induces autophagy flux
UAM accumulation, drug fed concurrently with oxOS (primary hfRPE culture [7]): more UAM accumulation
Autophagy induction in RPE after intravitreal injection (LC3II/LC3I ratio) (RPE of mouse eye): No concentration or time after injection provided convincing evidence for replicable autophagy induction
Autophagy induction in eyecups (LC3II/LC3I ratio) (RPE from mouse eyecups): induces autophagy well

SMILES: COc1cc2c(Oc3ccc4[nH]c(C)cc4c3F)ccnc2cc1OCC1(N)CC1 [anlotinib]
LC3-II/LC3-I ratio (autophagy induction) [1]: evidence for autophagy induction
LC3 puncta formation (autophagy induction) [2]: confirming autophagy induction
TEER (toxicity), Example 3 (primary hfRPE culture [4]): No toxicity is observed

SMILES: N#CC1(c2ccc(NC(=O)c3cccnc3NCc3ccncc3)cc2)CCCC1 [apatinib]
LC3-II/LC3-I ratio (autophagy induction) [1]: evidence for autophagy induction
LC3 puncta formation (autophagy induction) [2]: confirming autophagy induction
TEER (toxicity), Example 3 (primary hfRPE culture [4]): No toxicity is observed

SMILES: CCN(CC)CCNC(=O)c1c(C)[nH]c(/C=C2\C(=O)Nc3ccc(F)cc32)c1C [sunitinib]
TEER (toxicity), Example 3 (primary hfRPE culture [4]): No toxicity is observed

SMILES: CC(C)(C)OO [tBHP, tert-butyl hydroperoxide]
LDH release after oxidant exposure (assay validation) (primary hfRPE culture [9]): marked increase in LDH release
